For one experiment, the system named is L929 cells. The experiment can be described thus: L929 cell necroptosis assay (TNFa + zVAD, CellTiter-Glo). The experiment is classed as cell-based, murine. Conditions: Mus musculus. The protocol: (§1) In this example, U937 and L929 cells were exposed to compounds of the present disclosure and a cell necroptosis assay was conducted to evaluate the compounds' activity against human RIP1 and murine RIP1.
U937 and L929 cells were obtained from the American Type Culture Collection (Manassa, Va., USA). Both cells were maintained in logarithmic growth phase in complete RPMI 1640 media (Sigma, ST Louis, Mo., USA) supplemented with 10% fetal bovine serum (Sigma, ST Louis, Mo., USA) at 37° C. with 5% CO2. For necroptosis assay, L929 cells were plated for 18 h in 100 μL/well medium at 10K cells/well in Costar 96-well black clear-bottom plates (Fisher Scientific, Hampton, N.H., USA); U937 cells were plated on the day of the assay in 50 4/well medium containing 60 uM zVAD-fink (Lonza, Basel, Switzerland) at 50K cells/well. Medium from L929 cells were removed from the 96-well plates and replaced with 50 μL/well new medium containing 40 uM zVAD-fink. Each compound of the present disclosure evaluated in this example was serially diluted in DMSO from 2.5 mM in 4-fold dilutions, and then diluted 1:125 in complete medium. 50 μL/well 2× of the compound was then added to the cells in the plates. […] The relative amount of necroptosis cells was determined by luminescent using a Wallac Victor2 Luminometer (PerkinElmer, Waltham, Mass., USA) and a CellTiter-Glo® Luminescent Cell Viability Reagent Assay (Promega, Madison, Wis., USA) added per manufacturer instructions after 18 hours of TNFa stimulation at 37° C. with 5% CO2.

The test system of the next experiment is U937 cells. In words: U937 cell necroptosis assay (TNFa + zVAD, CellTiter-Glo). The experiment is classed as cell-based, human. Conditions: Homo sapiens. How it is done:
as §1
U937 and L929 cells were obtained from the American Type Culture Collection (Manassa, Va., USA). Both cells were maintained in logarithmic growth phase in complete RPMI 1640 media (Sigma, ST Louis, Mo., USA) supplemented with 10% fetal bovine serum (Sigma, ST Louis, Mo., USA) at 37° C. with 5% CO2. For necroptosis assay, L929 cells were plated for 18 h in 100 μL/well medium at 10K cells/well in Costar 96-well black clear-bottom plates (Fisher Scientific, Hampton, N.H., USA); U937 cells were plated on the day of the assay in 50 4/well medium containing 60 uM zVAD-fink (Lonza, Basel, Switzerland) at 50K cells/well. Medium from L929 cells were removed from the 96-well plates and replaced with 50 μL/well new medium containing 40 uM zVAD-fink. Each compound of the present disclosure evaluated in this example was serially diluted in DMSO from 2.5 mM in 4-fold dilutions, and then diluted 1:125 in complete medium. 50 μL/well 2× of the compound was then added to the cells in the plates. The cells were pre-incubated with the compound for 1 hour at 37° C. with 5% CO2 and before addition of 10 μL/well 1 1×TNFa (Peprotech, Rocky Hill, N.J., USA) to give a final concentration of 2 ng/mL for TNFa. The relative amount of necroptosis cells was determined by luminescent using a Wallac Victor2 Luminometer (PerkinElmer, Waltham, Mass., USA) and a CellTiter-Glo® Luminescent Cell Viability Reagent Assay (Promega, Madison, Wis., USA) added per manufacturer instructions after 18 hours of TNFa stimulation at 37° C. with 5% CO2. This example establishes that embodiments of the compounds described herein have unexpectedly potent activity against human RIP1 and murine RIP1, which allows their assessment in in vivo mouse models of disease.
In general terms: ATP-based viability assays read luminescence as a measure of living cells.

Where [1] appears, read: L929, L929 cells, TNFa + zVAD, read-out: L929-CTG-recovery, L929, TNFa + zVAD (IC50).
Setting [2] is: U-937, U937 cells, TNFa + zVAD, read-out: U937 Zvad TNF CTG Recovery, U937, TNFa + zVAD (IC50).

Where two headings read alike, the source gives them in different places.

One may read the IC50 as the concentration that inhibits the measured activity by half.

As to `C[C@H](N)C(=O)OCC(C)(C)C#Cc1ccc2c(c1)N(C)C(=O)[C@@H](NC(=O)c1cc(Oc3ccc(F)cc3)ccn1)CO2` [Compound I-171, 4-((S)-3-(4-(4-fluorophenoxy)picolinamido)-5-methyl-4-oxo-2,3,4,5-tetrahydrobenzo[b][1,4]oxazepin-7-yl)-2,2-dimethylbut-3-yn-1-yl L-alaninate], the IC50 in the experiment on L929 cells (setting [1]) was 394 nM; with U937 cells (setting [2]), 6.4 nM. The corresponding values for `CN1C(=O)[C@@H](NC(=O)n2cc(Cc3ccc(F)cc3F)cn2)COc2ccc(C#CC(C)(C)CO)cc21` [Compound I-239, (S)-4-(2,4-Difluorobenzyl)-N-(7-(4-hydroxy-3,3-dimethylbut-1-yn-1-yl)-5-methyl-4-oxo-2,3,4,5-tetrahydrobenzo[b][1,4]oxazepin-3-yl)-1H-pyrazole-1-carboxamide] are 218 nM and 8.8 nM. Turning to `[2H]C([2H])([2H])C(O)(C#Cc1ccc2c(c1)N(C)C(=O)[C@@H](NC(=O)c1n[nH]c(Cc3ccccc3)n1)CO2)C([2H])([2H])[2H]` [Compound I-69, (S)-5-benzyl-N-(7-(3-hydroxy-3-(methyl-d3)but-1-yn-1-yl-4,4,4-d3)-5-methyl-4-oxo-2,3,4,5-tetrahydrobenzo[b][1,4]oxazepin-3-yl)-1H-1,2,4-triazole-3-carboxamide], the figures for the half-inhibitory concentration (IC50) in the experiment on L929 cells (setting [1]) and in the experiment on U937 cells (setting [2]) were 0.9 nM and 2.2 nM, respectively.

For the compound `CCNC(=O)N1CC(O)(C#Cc2ccc3c(c2)N(C)C(=O)[C@@H](NC(=O)c2cc(Oc4ccccc4)ccn2)CO3)C1` [Compound I-198, (S)—N-(7-((1-(ethylcarbamoyl)-3-hydroxyazetidin-3-yl)ethynyl)-5-methyl-4-oxo-2,3,4,5-tetrahydrobenzo[b][1,4]oxazepin-3-yl)-4-phenoxypicolinamide], the results for the IC50 in the experiment with L929 cells (setting [1]) and in the experiment on U937 cells (setting [2]) were 39.1 nM and 0.9 nM, respectively. In the case of `[2H]c1c([2H])c([2H])c(Oc2ccnc(C(=O)N[C@H]3COc4ccc(C#CC5(O)COC5)cc4N(C)C3=O)c2)c([2H])c1[2H]` [Compound I-190, (S)—N-(7-((3-hydroxyoxetan-3-yl)ethynyl)-5-methyl-4-oxo-2,3,4,5-tetrahydrobenzo[b][1,4]oxazepin-3-yl)-4-(phenoxy-d5)picolinamide], the IC50 in the experiment with U937 cells (setting [2]) came to 0.6 nM. With `CN1C(=O)[C@@H](NC(=O)c2cc(Oc3ccccc3)ccn2)COc2ccc(C#CC3(F)CN(CC(F)(F)F)C3)cc21` [Compound I-168, (S)—N-(7-((3-fluoro-1-(2,2,2-trifluoroethyl)azetidin-3-yl)ethynyl)-5-methyl-4-oxo-2,3,4,5-tetrahydrobenzo[b][1,4]oxazepin-3-yl)-4-phenoxypicolinamide], the concentration for half-maximal inhibition (IC50) in the experiment with L929 cells (setting [1]) was 103 nM; in the experiment on U937 cells (setting [2]), 0.9 nM. Regarding `[2H]C([2H])([2H])C(O)(C#Cc1ccc2c(c1)N(C)C(=O)[C@@H](NC(=O)c1cc(Oc3ccccc3)ccn1)CO2)C([2H])([2H])[2H]` [Compound I-68, (S)—N-(7-(3-hydroxy-3-(methyl-d3)but-1-yn-1-yl-4,4,4-d3)-5-methyl-4-oxo-2,3,4,5-tetrahydrobenzo[b][1,4]oxazepin-3-yl)-4-phenoxypicolinamide], the half-maximal inhibitory concentration (IC50) in the experiment on L929 cells (setting [1]) came out at 0.3 nM; in the experiment on U937 cells (setting [2]), 0.7 nM. Regarding `CN1C(=O)[C@@H](NC(=O)c2cc(Oc3ccccc3)ccn2)COc2ccc(C#CC3(O)COC3)cc21` [Compound I-110, (S)—N-(7-((3-hydroxyoxetan-3-yl)ethynyl)-5-methyl-4-oxo-2,3,4,5-tetrahydrobenzo[b][1,4]oxazepin-3-yl)-4-phenoxypicolinamide], the 50% inhibitory concentration (IC50) with L929 cells (setting [1]) amounted to 18.8 nM; in the experiment with U937 cells (setting [2]), 0.4 nM. `CN1C(=O)[C@@H](NC(=O)c2cc(Oc3ccccc3)ccn2)COc2ccc(C#CC(C)(C)N3CCS(=O)(=O)CC3)cc21` [Compound I-211, (S)—N-(7-(3-(1,1-Dioxidothiomorpholino)-3-methylbut-1-yn-1-yl)-5-methyl-4-oxo-2,3,4,5-tetrahydrobenzo[b][1,4]oxazepin-3-yl)-4-phenoxypicolinamide]: the IC50 in the experiment with L929 cells (setting [1]) was 44.8 nM; in the experiment on U937 cells (setting [2]), 1.1 nM. In the case of `CN1C(=O)[C@@H](NC(=O)c2cc(Oc3ccccc3)ccn2)COc2ccc(C#CC3(F)CNC3)cc21` [Compound I-143], the 50% inhibitory concentration (IC50) was 197 nM with L929 cells (L929, read-out: L929-CTG-recovery, L929, TNFa + zVAD (IC50), L929 cells, TNFa + zVAD) and 3.5 nM in the experiment on U937 cells (U-937, read-out: U937 Zvad TNF CTG Recovery, U937, TNFa + zVAD (IC50), U937 cells, TNFa + zVAD). Consider `CN1C(=O)[C@@H](NC(=O)c2cc(Oc3ccccc3)ccn2)COc2ccc(C#CC3(O)CN(CC4CC4)C3)cc21` [Compound I-196, (S)—N-(7-((1-(cyclopropylmethyl)-3-hydroxyazetidin-3-yl)ethynyl)-5-methyl-4-oxo-2,3,4,5-tetrahydrobenzo[b][1,4]oxazepin-3-yl)-4-phenoxypicolinamide], for which the IC50 in the experiment on L929 cells (setting [1]) was 201 nM; in the experiment with U937 cells (setting [2]), 3.3 nM.

Regarding `CN1C(=O)[C@H](NC(=O)c2cc(Oc3ccccc3)ccn2)COc2ccc(C#CC(C)(C)O)cc21` [Compound I-113, (R)—N-(7-(3-hydroxy-3-methylbut-1-yn-1-yl)-5-methyl-4-oxo-2,3,4,5-tetrahydrobenzo[b][1,4]oxazepin-3-yl)-4-phenoxypicolinamide], the IC50 in the experiment with L929 cells (setting [1]) was found to be 2340 nM; with U937 cells (setting [2]) it was 31.5 nM.

As for `CC(C)N1CC(F)(C#Cc2ccc3c(c2)N(C)C(=O)[C@@H](NC(=O)c2cc(Oc4ccccc4)ccn2)CO3)C1` [Compound I-166, (S)—N-(7-((3-fluoro-1-isopropylazetidin-3-yl)ethynyl)-5-methyl-4-oxo-2,3,4,5-tetrahydrobenzo[b][1,4]oxazepin-3-yl)-4-phenoxypicolinamide], the figures for the IC50 in the experiment on L929 cells (setting [1]) and in the experiment with U937 cells (setting [2]) were 27.7 nM and 1 nM, respectively. Turning to `CN1C(=O)[C@@H](NC(=O)c2cc(Oc3ccc(F)cc3)ccn2)COc2ccc(C#CC(C)(C)COP(=O)(O)O)cc21` [Compound I-174, (S)-4-(3-(4-(4-fluorophenoxy)picolinamido)-5-methyl-4-oxo-2,3,4,5-tetrahydrobenzo[b][1,4]oxazepin-7-yl)-2,2-dimethylbut-3-yn-1-yl dihydrogen phosphate], the figures for the IC50 in the experiment with L929 cells (setting [1]) and in the experiment on U937 cells (setting [2]) were 16500 nM and 438 nM, respectively. As for `CN1C(=O)[C@@H](NC(=O)c2cc(Oc3ccccc3)ccn2)COc2ccc(C#CC(C)(C)COP(=O)(O)O)cc21` [Compound I-173, (S)-2,2-dimethyl-4-(5-methyl-4-oxo-3-(4-phenoxypicolinamido)-2,3,4,5-tetrahydrobenzo[b][1,4]oxazepin-7-yl)but-3-yn-1-yl dihydrogen phosphate], the half-maximal inhibitory concentration (IC50) came out at 2860 nM in the experiment on L929 cells (setting [1]) and 48.5 nM in the experiment on U937 cells (setting [2]).

`CN1C(=O)[C@@H](NC(=O)c2cc(Oc3ccc(F)cc3)ccn2)COc2ccc(C#CC(C)(C)COC(=O)CCC(=O)O)cc21` [Compound I-170, (S)-4-((4-(3-(4-(4-fluorophenoxy)picolinamido)-5-methyl-4-oxo-2,3,4,5-tetrahydrobenzo[b][1,4]oxazepin-7-yl)-2,2-dimethylbut-3-yn-1-yl)oxy)-4-oxobutanoic acid]: the IC50 in the experiment on L929 cells (setting [1]) came to 1840 nM; with U937 cells (setting [2]), 14.8 nM. Regarding `CN1C(=O)[C@@H](NC(=O)c2cc(Oc3ccccc3)ccn2)COc2ccc(C#CC3(F)CN(CC4CC4)C3)cc21` [Compound I-169, (S)—N-(7-((1-(cyclopropylmethyl)-3-fluoroazetidin-3-yl)ethynyl)-5-methyl-4-oxo-2,3,4,5-tetrahydrobenzo[b][1,4]oxazepin-3-yl)-4-phenoxypicolinamide], the IC50 turned out to be 148 nM with L929 cells (setting [1]) and 2.2 nM in the experiment on U937 cells (setting [2]).

Values taken from patent US11407736B2 (priority 2019, dated 2022).
